Each block holds one molecule with its values, some of them ahead of it.
Key:
cellulase [1] = experiment: Effect of xylose oligomer chain length on Avicel glucan initial hydrolysis rate; format: biochemical
From the text: FIG. 9 depicts the effect of xylose oligomer chain length on Avicel glucan initial hydrolysis rate at a cellulase loading of thirty FPU/g glucan and CBU to FPU activity ration of two.
Furthermore, these xylooligomers have been found in the liquor from pretreatment prior to enzymatic hydrolysis, with the amounts depending upon the type of pretreatment, substrate, and substrate loading. Furthermore, such xylooligomers can slow glucose and xylose release. […] In accordance with an aspect of the disclosure, 12.5 mg/ml (eighty mM xylose equivalent) of xylose, 6.6 mg/ml (forty-six mM xylose equivalent) and 16.6 mg/ml (one-hundred seventeen mM xylose equivalent) of xylobiose, and 6.6 mg/ml (forty-eight mM xylose equivalent) of xylotriose were added to two ml centrifuge tubes containing thirty mg of commercial grade cellulose in 1.5 ml of liquid at a cellulase loading of thirty FPU/g glucan, and initial hydrolysis rates were measured. Xylose alone at this concentration inhibited yields by about ten percent, but about half as much xylobiose, forty-six mM of xylose equivalent, reduced glucose release by eighteen percent. Furthermore, glucose release dropped by about thirty-two percent at a higher xylobiose loading of one-hundred seventeen mM of xylose equivalent. Adding almost half of the xylose concentration and about the same as the lower concentration of xylobiose, xylotriose (forty-eight mM xylose equivalent) reduced glucose release even more, by about twenty-four percent.

cellulase [2] = experiment: Hydrolysis of Avicel cellulose with added birch wood xylan, xylose and β-xylosidase; format: biochemical; conditions: xylose equivalent to 1% (w/v) xylan mixed with Avicel; 7.5 FPU/g glucan; 4 h rate
Procedure: Avicel+xylan−1% (w/v) each, Avicel+xylose−xylose equivalent to 1% (w/v) xylan. b-xylosidase loading was 28 mg/g glucan. Error bars represent the standard deviation.
Hydrolysis of one percent (w/w) commercial grade cellulose with an equal mass of birch wood xylan [approximately eighty-six percent xylan] was performed in triplicate at a cellulase plus β-glucosidase loading of 16.1 mg/glucan. Hydrolysis was also performed at a similar cellulase loading but supplemented with β-xylosidase at a loading of 14 mg/g glucan. To evaluate the effect of xylose alone on cellulose hydrolysis, cellulose containing an equivalent amount of xylose (1.053*amount of xylan) was enzymatically hydrolyzed in parallel. Controlled experiments for cellulose hydrolysis without xylan, cellulose with β-xylosidase only, and a substrate blank containing cellulose plus xylan were run in parallel. Samples were collected four, twenty-four, forty-eight, and seventy-two hours after initiation of hydrolysis and analyzed for sugars. Liquids produced by seventy-two hours of hydrolysis of samples containing xylan were post hydrolyzed to determine the amount of xylooligomers as described herein.
Referring now to FIG. 5, an aspect of the disclosure is the addition of β-xylosidase to effect hydrolysis of cellulose. […]
The concentration of xylose in the hydrolyzate was measured to be 5.5 g/l. […]

reduction of glucose release (Avicel initial hydrolysis) (cellulase [1]; xylobiose 6.6 mg/ml (forty-six mM xylose equivalent), thirty FPU/g glucan): eighteen
reduction of glucose release (Avicel initial hydrolysis) (cellulase [1]; xylobiose 16.6 mg/ml (one-hundred seventeen mM xylose equivalent), thirty FPU/g glucan): about thirty-two
Structure (SMILES): OC1OC[C@@H](O[C@@H]2OC[C@@H](O)[C@H](O)[C@H]2O)[C@H](O)[C@H]1O (some centres unmarked) [xylobiose]

reduction of glucose release (Avicel initial hydrolysis) (cellulase [1]; xylose 12.5 mg/ml (eighty mM xylose equivalent), cellulase thirty FPU/g glucan): about ten
inhibition of enzyme action (cellulase [2]): 12%
Structure (SMILES): O=C[C@H](O)[C@@H](O)[C@H](O)CO [xylose]

reduction of glucose release (Avicel initial hydrolysis) (cellulase [1]; xylotriose 6.6 mg/ml (forty-eight mM xylose equivalent), thirty FPU/g glucan): about twenty-four
Structure (SMILES): OC1OC[C@@H](O[C@@H]2OC[C@@H](O[C@@H]3OC[C@@H](O)[C@H](O)[C@H]3O)[C@H](O)[C@H]2O)[C@H](O)[C@H]1O (some centres unmarked) [xylotriose]

From patent US20110201084A1, “ENZYMATIC HYDROLYSIS OF CELLULOSIC BIOMASS THROUGH ENHANCED REMOVAL OF OLIGOMERS” (THE REGENTS OF THE UNIVERSITY OF CALIFORNIA, priority 2008, published 2011)
